According to ChEMBL document CHEMBL1201862, “PubChem BioAssay data set” (2004):
Activity calls are given as the source filed them.

Tests used:
Streptococcus = experiment: GAS UMAA2166 growth inhibition – luminescence, BacTiterGlo, counter-screen for streptokinase expression inhibitor project, dose response (AID 1915); format: functional, organism-based;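 also: potency for reduction of bacterial viability or growth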
[1] = system: Streptococcus sp. 'group A'; experiment: Streptococcus pyogenes SK(-)GAS viability under kanamycin – luminescence, BacTiterGlo, confirmation, counter-screen for streptokinase expression inhibitor project, dose response (AID 1900); format: functional, organism-based
[2] = biological target: T1, Short transient receptor potential channel 4 (Mus musculus, UniProt Q9QUQ5); experiment: calcium entry via TRPC4 opening agents – cell-based, HEK293 TRPC4/mu-opioid, Fluo-4 calcium, dose response (AID 434937); format: functional
T1 sequence (Q9QUQ5 whole entry): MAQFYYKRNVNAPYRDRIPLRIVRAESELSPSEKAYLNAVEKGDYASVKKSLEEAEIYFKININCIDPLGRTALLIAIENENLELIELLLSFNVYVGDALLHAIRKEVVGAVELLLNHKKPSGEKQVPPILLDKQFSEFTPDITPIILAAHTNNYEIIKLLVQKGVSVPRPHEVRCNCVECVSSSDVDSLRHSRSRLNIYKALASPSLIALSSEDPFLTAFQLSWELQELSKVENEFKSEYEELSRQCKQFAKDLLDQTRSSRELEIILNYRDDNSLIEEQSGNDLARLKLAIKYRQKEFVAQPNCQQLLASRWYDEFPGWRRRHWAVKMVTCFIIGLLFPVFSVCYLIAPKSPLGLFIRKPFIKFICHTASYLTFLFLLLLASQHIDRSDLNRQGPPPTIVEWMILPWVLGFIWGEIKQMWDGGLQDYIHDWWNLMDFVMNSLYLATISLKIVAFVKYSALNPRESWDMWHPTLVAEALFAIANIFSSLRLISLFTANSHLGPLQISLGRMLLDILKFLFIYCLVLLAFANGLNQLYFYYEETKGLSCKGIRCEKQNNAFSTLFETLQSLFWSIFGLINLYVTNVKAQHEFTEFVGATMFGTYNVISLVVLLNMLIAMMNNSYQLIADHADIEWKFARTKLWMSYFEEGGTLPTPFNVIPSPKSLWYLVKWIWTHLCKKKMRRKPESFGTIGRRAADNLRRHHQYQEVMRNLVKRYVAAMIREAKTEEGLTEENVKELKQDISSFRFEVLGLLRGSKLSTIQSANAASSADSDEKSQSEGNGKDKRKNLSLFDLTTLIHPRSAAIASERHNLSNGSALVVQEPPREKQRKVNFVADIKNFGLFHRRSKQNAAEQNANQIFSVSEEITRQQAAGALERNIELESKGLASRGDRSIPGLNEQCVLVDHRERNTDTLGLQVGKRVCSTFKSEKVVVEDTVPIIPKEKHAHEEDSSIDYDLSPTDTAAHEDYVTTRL

[3] = luciferase reporter signal suppression in cells – H4 neuroglioma cells, luminescence, dose response (AID 1990); format: functional, cell-based
[4] = Luminescence Cell-Based Dose Response HTS to Identify Inhibitors of 5'UTR Stem-Loop Driven Prion Protein mRNA Translation in H4 Neuroglioblastoma Cells. [Related pubchem assays: 1827 (Project Summary), 1813 (Primary HTS)]; format: functional
[5] = alpha-synuclein stem-loop luciferase translation blockers – H4 neuroglioma cells, luminescence, confirmation (AID 1988); format: functional, cell-based
[6] = biological target: Glyceraldehyde-3-phosphate dehydrogenase (Homo sapiens, UniProt P04406)
Sequence of Glyceraldehyde-3-phosphate dehydrogenase (P04406 whole entry): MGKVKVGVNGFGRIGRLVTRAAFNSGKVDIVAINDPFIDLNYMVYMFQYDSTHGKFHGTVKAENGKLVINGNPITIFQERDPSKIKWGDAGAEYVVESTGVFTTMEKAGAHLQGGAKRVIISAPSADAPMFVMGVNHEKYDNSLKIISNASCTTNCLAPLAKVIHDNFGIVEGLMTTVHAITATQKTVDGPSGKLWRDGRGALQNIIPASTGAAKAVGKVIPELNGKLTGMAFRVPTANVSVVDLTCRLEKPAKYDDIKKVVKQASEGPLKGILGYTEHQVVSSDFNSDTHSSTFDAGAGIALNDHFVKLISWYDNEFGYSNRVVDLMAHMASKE

[7] = biological target: T2, DNA repair protein RAD52 homolog (Homo sapiens, UniProt P43351); format: functional, biochemical
T2 sequence (P43351 whole entry): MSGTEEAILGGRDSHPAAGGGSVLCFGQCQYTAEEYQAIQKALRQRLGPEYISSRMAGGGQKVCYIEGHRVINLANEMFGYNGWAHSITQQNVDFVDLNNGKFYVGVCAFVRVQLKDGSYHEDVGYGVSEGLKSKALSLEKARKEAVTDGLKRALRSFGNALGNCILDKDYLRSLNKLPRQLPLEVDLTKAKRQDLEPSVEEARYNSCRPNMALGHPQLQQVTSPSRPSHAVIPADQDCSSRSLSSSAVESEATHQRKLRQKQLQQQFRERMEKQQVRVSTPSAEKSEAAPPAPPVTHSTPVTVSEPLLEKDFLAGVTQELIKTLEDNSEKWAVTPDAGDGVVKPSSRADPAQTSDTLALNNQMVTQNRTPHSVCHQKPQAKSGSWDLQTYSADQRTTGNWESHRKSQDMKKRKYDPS

Protein RecA = biological target: T3, Protein RecA (Mycobacterium tuberculosis, UniProt P9WHJ3); experiment: Fluorescence Cell-Free Homogeneous Dose Retest to Identify Inhibitors of RecA-Intein Splicing Activity. [Related pubchem assays (depositor defined):AID2097, AID2223, AID489010, AID492950]; format: functional
T3 sequence (P9WHJ3 whole entry): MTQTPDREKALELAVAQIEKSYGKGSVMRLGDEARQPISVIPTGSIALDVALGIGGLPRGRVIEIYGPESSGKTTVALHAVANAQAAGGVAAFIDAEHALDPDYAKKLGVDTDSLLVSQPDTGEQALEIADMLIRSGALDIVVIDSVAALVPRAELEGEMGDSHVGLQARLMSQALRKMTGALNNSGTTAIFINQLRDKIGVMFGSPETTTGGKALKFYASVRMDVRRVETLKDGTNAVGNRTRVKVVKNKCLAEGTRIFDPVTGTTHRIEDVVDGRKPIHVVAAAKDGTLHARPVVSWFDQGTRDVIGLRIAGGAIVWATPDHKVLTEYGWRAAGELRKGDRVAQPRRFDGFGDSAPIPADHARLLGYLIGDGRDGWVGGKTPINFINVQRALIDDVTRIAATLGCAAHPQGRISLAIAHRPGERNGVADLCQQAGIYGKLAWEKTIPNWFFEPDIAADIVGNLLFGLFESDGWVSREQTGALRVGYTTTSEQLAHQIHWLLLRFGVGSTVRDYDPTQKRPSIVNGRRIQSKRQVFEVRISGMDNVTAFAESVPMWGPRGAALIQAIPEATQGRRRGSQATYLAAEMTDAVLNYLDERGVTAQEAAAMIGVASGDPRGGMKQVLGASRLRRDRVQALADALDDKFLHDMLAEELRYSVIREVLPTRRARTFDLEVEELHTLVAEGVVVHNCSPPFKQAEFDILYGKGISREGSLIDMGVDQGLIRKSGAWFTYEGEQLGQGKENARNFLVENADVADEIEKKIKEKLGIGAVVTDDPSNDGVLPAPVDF

[8] = non-specific 3'UTR reporter inhibition in Clone20-Shn3RL – cell-based, Renilla luciferase, cherry-picked, counter-screen for Shn3 inhibitor project, dose response (AID 624133); format: functional
Genome polyprotein = Genome polyprotein (dengue virus type 2, UniProt P29990); experiment: flavivirus cap methylation enzyme inhibition – biochemical, confirmation dose response, primary screen (AID 588689); format: functional
Sequence of Genome polyprotein (P29990 2492-3391 limits assumed): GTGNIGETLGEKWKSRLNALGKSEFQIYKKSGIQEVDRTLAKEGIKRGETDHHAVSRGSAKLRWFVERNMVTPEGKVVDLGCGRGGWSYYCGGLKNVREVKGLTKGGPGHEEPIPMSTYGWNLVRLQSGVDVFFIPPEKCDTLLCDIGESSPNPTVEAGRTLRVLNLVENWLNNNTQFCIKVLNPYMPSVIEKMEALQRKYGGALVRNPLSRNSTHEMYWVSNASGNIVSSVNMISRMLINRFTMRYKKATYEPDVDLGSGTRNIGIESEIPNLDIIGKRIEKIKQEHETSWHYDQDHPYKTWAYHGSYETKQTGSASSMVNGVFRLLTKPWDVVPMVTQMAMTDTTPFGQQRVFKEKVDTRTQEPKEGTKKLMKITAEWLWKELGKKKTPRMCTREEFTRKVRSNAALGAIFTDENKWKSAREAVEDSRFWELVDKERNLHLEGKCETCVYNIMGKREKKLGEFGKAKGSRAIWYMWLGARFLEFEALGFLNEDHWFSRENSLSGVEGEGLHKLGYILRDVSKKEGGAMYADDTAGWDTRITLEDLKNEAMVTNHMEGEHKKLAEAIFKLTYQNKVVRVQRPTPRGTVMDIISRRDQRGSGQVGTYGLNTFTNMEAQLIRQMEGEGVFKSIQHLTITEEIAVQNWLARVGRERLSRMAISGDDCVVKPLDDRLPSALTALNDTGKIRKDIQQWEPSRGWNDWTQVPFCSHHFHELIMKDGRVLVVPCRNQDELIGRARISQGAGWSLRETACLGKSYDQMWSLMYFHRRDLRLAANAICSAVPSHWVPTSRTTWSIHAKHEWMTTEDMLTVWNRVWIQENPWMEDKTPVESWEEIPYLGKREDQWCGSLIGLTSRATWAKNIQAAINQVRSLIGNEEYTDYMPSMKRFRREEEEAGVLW

Vero = experiment: viability of Vero cells under compound – cytotoxicity control for flavivirus capping enzyme inhibitors (AID 588742); format: functional; settings: Chlorocebus sabaeus
[9] = reduction of Shn3 3'UTR-driven luciferase in osteoblasts – cell-based, Clone20 osteoblasts, firefly luciferase, cherry-picked, dose response (AID 624132); format: functional;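 also: firefly luciferase luminescence from reporter carrying the Shn3 3'UTR in osteoblasts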
[10] = biological target: T4, Replicative DNA helicase DnaB (Mycobacterium tuberculosis, UniProt P9WMR3); experiment: DnaB intein splicing inhibitors, dose response, biochemical, cell-free fluorescence (AID 449749); format: functional
T4 sequence (P9WMR3 whole entry): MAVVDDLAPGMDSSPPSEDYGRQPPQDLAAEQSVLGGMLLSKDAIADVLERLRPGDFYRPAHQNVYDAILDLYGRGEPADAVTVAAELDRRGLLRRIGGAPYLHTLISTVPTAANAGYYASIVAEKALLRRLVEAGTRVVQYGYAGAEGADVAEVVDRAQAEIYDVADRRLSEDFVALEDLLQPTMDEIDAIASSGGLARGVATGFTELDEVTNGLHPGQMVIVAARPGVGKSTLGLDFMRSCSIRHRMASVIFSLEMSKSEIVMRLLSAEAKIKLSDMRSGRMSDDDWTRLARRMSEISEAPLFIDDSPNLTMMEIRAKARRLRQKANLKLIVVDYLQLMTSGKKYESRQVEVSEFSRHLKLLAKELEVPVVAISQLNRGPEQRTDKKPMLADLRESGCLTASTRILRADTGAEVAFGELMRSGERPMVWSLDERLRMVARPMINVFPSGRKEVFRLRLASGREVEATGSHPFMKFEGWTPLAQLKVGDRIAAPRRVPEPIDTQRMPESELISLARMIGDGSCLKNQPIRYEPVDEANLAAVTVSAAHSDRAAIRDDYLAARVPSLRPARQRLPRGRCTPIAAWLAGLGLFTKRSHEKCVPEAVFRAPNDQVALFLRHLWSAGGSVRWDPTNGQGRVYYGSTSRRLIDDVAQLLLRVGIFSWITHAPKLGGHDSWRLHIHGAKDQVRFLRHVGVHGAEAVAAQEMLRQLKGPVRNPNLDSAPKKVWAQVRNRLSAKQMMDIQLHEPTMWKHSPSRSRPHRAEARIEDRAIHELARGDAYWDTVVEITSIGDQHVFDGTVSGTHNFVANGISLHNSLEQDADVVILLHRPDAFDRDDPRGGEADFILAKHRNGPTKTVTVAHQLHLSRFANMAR

Estrogen receptor beta = Estrogen receptor beta (Homo sapiens, UniProt Q92731);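 also: recombinant ER-beta bound to coactivator SRC1 peptide in presence of estradiol agonist; inhibitors block coactivator peptide binding and lower the FRET signal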
Sequence of Estrogen receptor beta (Q92731 whole entry): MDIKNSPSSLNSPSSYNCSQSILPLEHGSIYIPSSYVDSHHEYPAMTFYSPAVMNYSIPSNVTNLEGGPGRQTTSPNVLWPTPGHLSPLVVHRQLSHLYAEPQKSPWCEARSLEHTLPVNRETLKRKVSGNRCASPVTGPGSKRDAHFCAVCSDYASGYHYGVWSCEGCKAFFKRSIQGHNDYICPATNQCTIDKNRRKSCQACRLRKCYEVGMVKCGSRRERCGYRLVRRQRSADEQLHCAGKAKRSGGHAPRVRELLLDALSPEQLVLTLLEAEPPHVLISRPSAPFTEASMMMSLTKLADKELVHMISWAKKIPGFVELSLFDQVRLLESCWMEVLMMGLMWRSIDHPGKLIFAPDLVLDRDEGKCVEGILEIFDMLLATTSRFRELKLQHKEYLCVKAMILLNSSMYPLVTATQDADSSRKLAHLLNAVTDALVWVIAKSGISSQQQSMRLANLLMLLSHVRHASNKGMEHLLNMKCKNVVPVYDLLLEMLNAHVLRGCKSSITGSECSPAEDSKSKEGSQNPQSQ

In the case of CCCc1ccc(OCC(=O)NNC(=S)NC(=O)c2ccco2)cc1, the EC50 (Streptococcus) is reported as 1.39 µM (active), the EC50 [1] is reported as 0.069 µM (active) and the EC50 [2] is reported as 6.68 µM (active).
In the case of COc1cc2cc(C(c3nnnn3C3CCCCC3)N(C)C3CCCCC3)c(O)nc2cc1OC (stereo unspecified), the EC50 [3] is reported as 15.7 µM (active), the EC50 [4] is reported as > 120 µM (not active) and the EC50 [5] is reported as > 120 µM (not active).
With Cc1onc(-c2ccccc2Cl)c1C(=O)Nc1ccc(S(N)(=O)=O)cc1 the IC50 [6] was > 100 µM (not active).
For CCOc1cccc2sc(N(CCCN(C)C)C(=O)c3ccc(C(=O)c4ccccc4)cc3)nc12, the AC50 [7] was 17.3 µM (active).
For O=C(NNC(=O)c1ccc2ncccc2c1)c1ccc(Cl)cc1, the EC50 [3] was > 120 µM (not active), the EC50 [4] was > 120 µM (not active) and the EC50 [5] was > 120 µM (not active).
In the case of Cc1cccc(CS(=O)(=O)c2ncc(Cl)c(C(=O)Nc3nnc(C(C)C)s3)n2)c1, the EC50 (Protein RecA) is reported as 0.312 µM (active), the AC50 [8] is reported as 4.36 µM (active) and the IC50 (Genome polyprotein) is reported as 94.3 µM (active). For the same compound, the CC50 (Vero) was 25.6 µM (active), the AC50 [9] was 1.62 µM (active) and the AC50 [10] was 1.2 µM (active).
In the case of Cc1onc(-c2ccccc2Cl)c1C(=O)NCc1ccccn1, the EC50 [3] is reported as > 120 µM (not active), the EC50 [4] is reported as > 120 µM (not active) and the EC50 [5] is reported as > 120 µM (not active).
In the case of CCn1c(NN)nc2sc3c(c2c1=O)CCC3, the IC50 (Estrogen receptor beta) is reported as > 50 µM (not active).
